Active and inactive are the calls of the source. The rule behind the calls is not given here.
Columns and labels:
[1] = AUC (0 to 72 hrs) in Sprague-Dawley rat at 20 mg/kg, iv by LC-MS/MS analysis; format: ADME, organism-based; parameters: time < 72 hr, route intravenous, dose 20 mg/kg; settings: in vivo
Heart = assay: Toxicity in BALB/c mouse assessed as effect on heart by H and E staining based histological analysis; format: tissue-based; settings: in vivo
HCT-116 [2] = assay: Inhibition of cell migration in human HCT-116 cells at 1.5 uM measured after 24 hrs by wound healing assay (reference value: 31.16 %); format: functional
HCT-116 [3] = assay: Induction of apoptosis in human HCT-116 cells assessed as necrotic cells at 2.5 uM incubated for 24 hrs by annexin V FITC/propidium iodide staining based flow cytometry (reference value: 0.9 %); format: functional
[4] = Selectivity index, ratio of IC50 for antiproliferative activity against human L02 cells to IC50 for antiproliferative activity against human HepG2 cells; format: toxicity, cell-based; settings: L02 cells versus HepG2 cells, read-out: Ratio IC50
Mus musculus = assay: Hyperglycemic activity in ICR mouse model assessed as effect on blood glucose level at 20 mg/kg, iv by glucometer; format: toxicity, organism-based; settings: in vivo
HCT-116 [5] = assay: Antitumor activity against human HCT-116 cells xenografted in BALB/c nude mouse assessed as tumor size at 20 mg/kg, iv administered for 19 days (reference value: 1264.1+/-95.7 mm3); format: functional; settings: time 19 day
HCT-116 [6] = assay: Inhibition of AKT phosphorylation at S473 residue in human HCT-116 cells at 10 uM after 24 hrs by Western blot analysis; format: cell-based
Cytochrome P450 2D6 = Cytochrome P450 2D6 (Homo sapiens, UniProt P10635); assay: Inhibition of CYP2D6 (unknown origin); format: ADME
Sequence of Cytochrome P450 2D6 (P10635 whole entry): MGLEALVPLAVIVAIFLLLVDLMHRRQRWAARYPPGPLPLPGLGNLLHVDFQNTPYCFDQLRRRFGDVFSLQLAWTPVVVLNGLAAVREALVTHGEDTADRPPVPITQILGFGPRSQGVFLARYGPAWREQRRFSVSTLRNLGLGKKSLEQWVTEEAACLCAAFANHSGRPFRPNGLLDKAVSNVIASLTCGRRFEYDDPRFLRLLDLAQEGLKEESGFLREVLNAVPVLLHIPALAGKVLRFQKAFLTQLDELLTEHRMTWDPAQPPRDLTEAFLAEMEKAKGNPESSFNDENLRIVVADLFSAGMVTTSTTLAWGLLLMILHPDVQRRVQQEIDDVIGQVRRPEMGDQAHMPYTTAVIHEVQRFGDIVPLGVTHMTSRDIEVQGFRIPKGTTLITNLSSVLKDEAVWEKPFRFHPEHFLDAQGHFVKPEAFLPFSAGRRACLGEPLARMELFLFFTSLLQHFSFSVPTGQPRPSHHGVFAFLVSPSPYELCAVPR

[7] = Stability in Sprague-Dawley rat plasma; format: ADME, cell-free
HCT-116 [8] = assay: Induction of apoptosis in human HCT-116 cells assessed as early apoptotic cells at 2.5 uM incubated for 24 hrs by annexin V FITC/propidium iodide staining based flow cytometry (reference value: 11.1 %); format: functional
[9] = Metabolic stability in Sprague-Dawley rat liver microsome; format: ADME; settings: microsomes
CNE-2 = assay: Antiproliferative activity against human CNE-2 cells assessed as reduction in cell viability incubated for 48 hrs by MTT assay; format: functional, cell-based; settings: CNE-2, 48 h
Cytochrome P450 1A2 = Cytochrome P450 1A2 (Homo sapiens, UniProt P05177); assay: Inhibition of CYP1A2 (unknown origin); format: ADME
Sequence of Cytochrome P450 1A2 (P05177 whole entry): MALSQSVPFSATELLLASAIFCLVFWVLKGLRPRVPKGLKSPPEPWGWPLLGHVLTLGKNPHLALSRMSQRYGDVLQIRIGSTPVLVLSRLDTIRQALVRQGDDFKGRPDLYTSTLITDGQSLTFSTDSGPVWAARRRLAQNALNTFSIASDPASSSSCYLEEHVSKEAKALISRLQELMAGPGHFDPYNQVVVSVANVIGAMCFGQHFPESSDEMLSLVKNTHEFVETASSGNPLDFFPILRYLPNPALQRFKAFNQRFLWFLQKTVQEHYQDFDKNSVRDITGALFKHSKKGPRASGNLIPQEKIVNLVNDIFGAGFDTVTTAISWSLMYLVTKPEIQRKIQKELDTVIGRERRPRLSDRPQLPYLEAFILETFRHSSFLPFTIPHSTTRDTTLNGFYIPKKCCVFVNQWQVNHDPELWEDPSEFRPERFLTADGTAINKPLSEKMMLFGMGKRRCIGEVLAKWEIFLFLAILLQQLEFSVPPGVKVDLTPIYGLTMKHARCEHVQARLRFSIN

Kidney = assay: Toxicity in BALB/c mouse assessed as effect on kidney by H and E staining based histological analysis; format: tissue-based; settings: in vivo
NCI-H1975 = assay: Antiproliferative activity against human NCI-H1975 cells harboring EGFR L858R/T790M double mutant assessed as reduction in cell viability incubated for 72 hrs by celltiter-glo assay; format: functional, cell-based; settings: NCI-H1975, 72 h
HCT-116 [10] = assay: Induction of apoptosis in human HCT-116 cells assessed as early apoptotic cells at 5 uM incubated for 24 hrs by annexin V FITC/propidium iodide staining based flow cytometry (reference value: 11.1 %); format: functional
[11] = target: Phosphatidylinositol 4,5-bisphosphate 3-kinase catalytic subunit alpha isoform (Homo sapiens, UniProt P42336); assay: Inhibition of PI3Kalpha (unknown origin) using PIP2 as substrate in presence of ATP incubated for 60 mins by ADP-glo based luminescence assay
Sequence of Phosphatidylinositol 4,5-bisphosphate 3-kinase catalytic subunit alpha isoform (P42336 whole entry, canonical isoform): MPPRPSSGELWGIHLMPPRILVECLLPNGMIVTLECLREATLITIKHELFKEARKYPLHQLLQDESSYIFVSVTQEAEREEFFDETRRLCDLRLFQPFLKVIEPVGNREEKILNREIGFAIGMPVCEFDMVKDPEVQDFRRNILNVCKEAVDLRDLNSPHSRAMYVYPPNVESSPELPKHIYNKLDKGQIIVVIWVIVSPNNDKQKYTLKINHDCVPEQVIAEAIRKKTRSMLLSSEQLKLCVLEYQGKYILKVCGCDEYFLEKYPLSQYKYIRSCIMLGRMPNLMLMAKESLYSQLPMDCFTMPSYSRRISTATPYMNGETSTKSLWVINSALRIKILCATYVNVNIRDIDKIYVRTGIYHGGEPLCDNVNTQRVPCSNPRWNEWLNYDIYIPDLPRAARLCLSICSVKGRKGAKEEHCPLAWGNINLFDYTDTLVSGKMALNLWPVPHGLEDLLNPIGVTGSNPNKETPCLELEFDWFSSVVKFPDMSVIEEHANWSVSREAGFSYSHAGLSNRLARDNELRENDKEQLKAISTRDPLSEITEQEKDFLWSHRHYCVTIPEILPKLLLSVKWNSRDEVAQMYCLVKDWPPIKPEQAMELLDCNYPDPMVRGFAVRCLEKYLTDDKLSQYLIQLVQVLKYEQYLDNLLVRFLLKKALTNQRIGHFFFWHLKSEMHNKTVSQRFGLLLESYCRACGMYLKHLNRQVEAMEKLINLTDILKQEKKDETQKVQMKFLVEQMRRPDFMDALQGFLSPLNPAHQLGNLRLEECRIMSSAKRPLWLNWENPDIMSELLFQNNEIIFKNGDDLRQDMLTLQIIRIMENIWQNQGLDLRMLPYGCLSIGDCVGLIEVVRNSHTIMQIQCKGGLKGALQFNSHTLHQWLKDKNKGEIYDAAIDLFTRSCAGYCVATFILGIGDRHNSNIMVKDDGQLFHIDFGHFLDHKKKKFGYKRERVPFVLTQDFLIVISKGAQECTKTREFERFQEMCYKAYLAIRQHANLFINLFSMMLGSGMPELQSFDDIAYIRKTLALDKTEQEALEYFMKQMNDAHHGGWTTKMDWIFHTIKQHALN

Cytochrome P450 3A4 = Cytochrome P450 3A4 (Homo sapiens, UniProt P08684); assay: Inhibition of CYP3A4 (unknown origin); format: ADME
Sequence of Cytochrome P450 3A4 (P08684 whole entry): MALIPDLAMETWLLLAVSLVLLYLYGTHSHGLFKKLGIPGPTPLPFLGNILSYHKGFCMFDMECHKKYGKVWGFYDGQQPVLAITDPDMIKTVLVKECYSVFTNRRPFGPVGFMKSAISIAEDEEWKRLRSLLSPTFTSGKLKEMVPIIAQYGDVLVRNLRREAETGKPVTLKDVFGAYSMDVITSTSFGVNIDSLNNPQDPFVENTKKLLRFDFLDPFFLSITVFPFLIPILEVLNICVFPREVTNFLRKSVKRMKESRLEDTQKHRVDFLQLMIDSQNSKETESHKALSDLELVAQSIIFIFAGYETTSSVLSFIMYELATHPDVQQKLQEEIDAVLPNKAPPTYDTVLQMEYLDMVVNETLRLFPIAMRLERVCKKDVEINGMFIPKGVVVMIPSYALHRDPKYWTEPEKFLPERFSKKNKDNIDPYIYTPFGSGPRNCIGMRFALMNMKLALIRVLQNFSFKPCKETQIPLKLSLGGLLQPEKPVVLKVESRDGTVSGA

[12] = Half life in Sprague-Dawley rat at 20 mg/kg, iv by LC-MS/MS analysis; format: ADME, organism-based; settings: in vivo
[13] = Tmax in Sprague-Dawley rat at 20 mg/kg, iv by LC-MS/MS analysis; format: ADME, organism-based; settings: in vivo
Liver = assay: Toxicity in BALB/c mouse assessed as effect on liver by H and E staining based histological analysis; format: tissue-based; settings: in vivo
[14] = Volume of distribution at steady state in Sprague-Dawley rat at 20 mg/kg, iv by LC-MS/MS analysis; format: ADME, organism-based; settings: in vivo
Spleen = assay: Toxicity in BALB/c mouse assessed as effect on spleen by H and E staining based histological analysis; format: tissue-based; settings: in vivo
HCT-116 [15] = assay: Induction of apoptosis in human HCT-116 cells assessed as late apoptotic cells at 2.5 uM incubated for 24 hrs by annexin V FITC/propidium iodide staining based flow cytometry (reference value: 6.8 %); format: functional
HCT-116 [16] = assay: Induction of apoptosis in human HCT-116 cells assessed as viable cells at 5 uM incubated for 24 hrs by annexin V FITC/propidium iodide staining based flow cytometry (reference value: 81.2 %); format: functional; settings: read-out: Activity
HCT-116 [17] = assay: Inhibition of cell migration in human HCT-116 cells at 6 uM measured after 24 hrs by wound healing assay (reference value: 31.16 %); format: functional
[18] = target: Voltage-gated inwardly rectifying potassium channel KCNH2 (Homo sapiens, UniProt Q12809); assay: Inhibition of human ERG transfected in CHO cells by automated patch method; format: toxicity, cell-based
Sequence of Voltage-gated inwardly rectifying potassium channel KCNH2 (Q12809 whole entry): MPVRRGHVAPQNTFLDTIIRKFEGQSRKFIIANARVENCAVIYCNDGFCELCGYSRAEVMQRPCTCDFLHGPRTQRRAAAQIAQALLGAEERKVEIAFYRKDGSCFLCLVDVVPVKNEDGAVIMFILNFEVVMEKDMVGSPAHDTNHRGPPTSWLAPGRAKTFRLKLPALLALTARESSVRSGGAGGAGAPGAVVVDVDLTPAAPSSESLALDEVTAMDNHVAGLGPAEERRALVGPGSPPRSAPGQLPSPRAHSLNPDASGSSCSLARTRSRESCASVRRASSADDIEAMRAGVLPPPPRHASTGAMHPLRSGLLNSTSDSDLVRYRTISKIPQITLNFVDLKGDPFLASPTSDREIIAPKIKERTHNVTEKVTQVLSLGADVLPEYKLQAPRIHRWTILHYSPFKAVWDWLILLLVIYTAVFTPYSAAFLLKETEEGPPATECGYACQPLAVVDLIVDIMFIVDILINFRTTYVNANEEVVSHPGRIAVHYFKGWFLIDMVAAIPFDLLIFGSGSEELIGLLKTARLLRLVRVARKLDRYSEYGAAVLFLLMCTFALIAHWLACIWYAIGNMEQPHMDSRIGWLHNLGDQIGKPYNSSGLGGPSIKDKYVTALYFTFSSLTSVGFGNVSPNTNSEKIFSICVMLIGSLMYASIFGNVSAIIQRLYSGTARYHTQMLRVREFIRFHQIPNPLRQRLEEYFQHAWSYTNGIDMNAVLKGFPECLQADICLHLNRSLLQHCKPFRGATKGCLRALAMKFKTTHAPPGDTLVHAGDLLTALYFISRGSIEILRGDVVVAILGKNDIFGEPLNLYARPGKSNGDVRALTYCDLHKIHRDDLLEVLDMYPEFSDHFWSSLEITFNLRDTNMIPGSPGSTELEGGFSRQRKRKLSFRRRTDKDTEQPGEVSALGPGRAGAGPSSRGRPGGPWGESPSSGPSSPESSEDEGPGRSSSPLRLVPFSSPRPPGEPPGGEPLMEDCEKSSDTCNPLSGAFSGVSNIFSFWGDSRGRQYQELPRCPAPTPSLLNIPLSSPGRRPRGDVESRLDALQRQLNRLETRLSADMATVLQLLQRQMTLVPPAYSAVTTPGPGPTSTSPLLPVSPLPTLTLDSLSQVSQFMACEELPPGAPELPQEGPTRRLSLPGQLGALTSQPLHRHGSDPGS

Cytochrome P450 2C9 = Cytochrome P450 2C9 (Homo sapiens, UniProt P11712); assay: Inhibition of CYP2C9 (unknown origin); format: ADME
Sequence of Cytochrome P450 2C9 (P11712 whole entry): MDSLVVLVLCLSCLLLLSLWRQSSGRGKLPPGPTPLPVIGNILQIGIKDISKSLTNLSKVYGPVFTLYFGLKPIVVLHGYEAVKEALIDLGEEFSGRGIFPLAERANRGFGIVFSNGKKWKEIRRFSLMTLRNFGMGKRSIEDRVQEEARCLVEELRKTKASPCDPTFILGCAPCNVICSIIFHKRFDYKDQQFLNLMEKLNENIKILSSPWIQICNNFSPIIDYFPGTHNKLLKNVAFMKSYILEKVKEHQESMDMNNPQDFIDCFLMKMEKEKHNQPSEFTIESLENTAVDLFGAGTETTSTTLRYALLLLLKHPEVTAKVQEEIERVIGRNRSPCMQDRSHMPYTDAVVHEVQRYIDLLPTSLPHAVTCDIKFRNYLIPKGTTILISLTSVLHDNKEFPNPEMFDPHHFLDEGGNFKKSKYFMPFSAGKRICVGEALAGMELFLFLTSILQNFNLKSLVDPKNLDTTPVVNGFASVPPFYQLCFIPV

HCT-116 [19] = assay: Antitumor activity against human HCT-116 cells xenografted in BALB/c nude mouse assessed as tumor growth inhibition at 20 mg/kg, iv administered for 19 days; format: functional; settings: HCT-116, iv, 456 h, time 19 day, read-out: TGI
BaF3 = assay: Antiproliferative activity against mouse BaF3 cells harboring EGFR L858R/T790M/C797S mutant assessed as reduction in cell viability incubated for 72 hrs by celltiter-glo assay; format: toxicity, cell-based; settings: BaF3, 72 h

In the case of `NC(=O)[C@@H]1CCCN1C(=O)c1ccc(NC(=O)Nc2ccc(-c3nc(N4CCOCC4)nc(N4CCOCC4)n3)cc2)cc1`, the AUC(0-t) at 72 h [1] is reported as 30000 ng·h/mL, the Activity (Heart) is reported as “Non-Toxic” and the inhibition at 1.5 µM (HCT-116 [2]) is reported as 12.2%. The Activity (HCT-116 [3]) was 2.2%, the selectivity ratio [4] was 6.6 and the Activity (Mus musculus) was “Non-Toxic”. The Activity (HCT-116 [5]) was 796.2 mm3, the inhibition (HCT-116 [6]) was “Active” and the IC50 (Cytochrome P450 2D6) was > 50000 nM. For the same molecule, the Stability [7] was “Stable”, the Activity (HCT-116 [8]) was 18.5% and the Stability [9] was “Stable”. The IC50 (CNE-2) was 70 nM, the IC50 (Cytochrome P450 1A2) was > 50000 nM and the Activity (Kidney) was “Non-Toxic”. It also gave an IC50 (NCI-H1975) of 217 nM, an Activity (HCT-116 [10]) of 13.3% and an IC50 [11] of 0.7 nM. The IC50 (Cytochrome P450 3A4) was > 50000 nM, the half-life [12] was 19 h and the Tmax [13] was 1.8 min. The Activity (Liver) was “Non-Toxic”, the Vdss [14] was 17.9 L/kg and the Activity (Spleen) was “Non-Toxic”. It also gave an Activity (HCT-116 [15]) of 20.6%, a viability at 5 µM (HCT-116 [16]) of 75.2% and an inhibition at 6 µM (HCT-116 [17]) of 6.4%. For the same molecule, the IC50 [18] was > 30000 nM, the IC50 (Cytochrome P450 2C9) was > 50000 nM and the inhibition in vivo at 20 mg/kg (HCT-116 [19]) was 41.6%. The IC50 (BaF3) was 217 nM.
